≈ marks a conversion by molar mass, not a printed value.
Assays:
HBV = assay: Antiviral (HBV) assay in primary human hepatocytes (PHHs); format: cell-based; settings: Hepatitis B virus, Hepatocyte, 120 h; HBV (GTD) infected PHH, 5 days, HBV DNA in supernatant; average of at least two independent experiments
Procedure: Example 106: Antiviral (HBV) Assay in Primary Human Hepatocytes (PHHs)
Cryopreserved PHH were thawed, recovered by centrifugation at 100 g in cryopreserved hepatocyte recovery medium (Thermo Fisher Scientific; CM7500), and plated on collagen matrix (Life Technologies; Catalog Number: R-011-K) coated T225 flasks (Corning CellBIND, Catalog Number: 3293) at a density of 25E6 live cells in 60 mls media. Cells were plated in William's E medium (Thermo Fisher Scientific; A1217601) supplemented with 3.6% hepatocyte thawing and plating supplement (Thermo Fisher Scientific, A15563), 5% fetal bovine serum (Thermo Fisher Scientific; 16000-036), 1 μM dexamethasone (Thermo Fisher Scientific, A15563), and 0.2% Torpedo antibiotic mix (Bioreclamation; Z990008). The plating medium was removed after 14 hours and the cells were subsequently cultured in maintenance medium: William's E medium supplemented with 4% hepatocyte maintenance supplement (Thermo Fisher Scientific; AI15564), 2% fetal bovine serum, 0.1μ M dexamethasone, 1.5% DMSO (Sigma-Aldrich, St. Louis, MO; D8418), and 0.2% Torpedo antibiotic mix. Approximately 24 hours after plating, PHH were infected with HepAD38-derived GTD virus at 500 viral genome equivalents per cell in PHH maintenance medium supplemented with 4% PEG 8000 (Promega, Madison, WI; V3011). Infections were allowed to proceed for 24 hours before removing the remaining extracellular virions by washing with maintenance medium three times. After allowing viral infection to take place for 3 days, the infected cells were harvested from the flasks by trypsinization (0.25X in PBS without Ca/Mg, 25 minutes) following a 4 minute 0.5X Versene (Life Technologies Catalog Number: 15040-066) treatment and two PBS washes. Trypsinized cells were inactivated in 10% FBS containing maintenance medium, centrifuged 6 minutes at 50 g, resuspended in hepatocyte maintenance medium, filtered through a 40 uM cell strainer, and adjusted to a density of 0.25E6 cells/ml. Infected cells were seeded on 384 well collagen coated plates (Greiner, Austria) at a density of 20,000 cells/well containing serially diluted compounds of the present disclosure or DMSO (0.5%) in a final volume of 80 μl. The assay plates were incubated for a period of 5 days and the antiviral activity of the test compounds were assayed by detecting the presence of HBV DNA in the culture supernatant using the QuantiGene™ 2.0 nucleic acid quantification kit (Affymetrix, Santa Clara, CA).

[1] = Cytotoxicity assay in MT-4 cells; format: cell-based; settings: human, uninfected MT-4 cells, average of at least two independent experiments, read-out: MT4 CC50
In short: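 Uninfected MT-4 cells were incubated 5 days at 37 °C with 1:3 serially diluted compound in RPMI (10% FBS), with 10 μM puromycin as baseline cytotoxicity. Viability was read by CellTiter-Glo luminescence. Values are concentrations giving 50% luminescence decrease, from sigmoidal dose-response fits.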

[2] = Cytotoxicity assay in primary human hepatocytes (PHHs); format: cell-based; settings: HBV-infected primary human hepatocytes, HBV-infected PHH, Cell Titer Glo, average of at least two independent experiments
Procedure: Example 107: Cytotoxicity Assay in Primary Human Hepatocytes (PHHs)
The HBV-infected primary human hepatocytes are seeded (20K cells/well in 80 uL of Media) in 384well collagen coated plates pre-spotted with compounds. After 5 days, 40 ul of cell supernatant is removed to quantify HBV DNA levels as described in Example 106. Then, 40 ul Cell Titer Glo Reagent (Promega Catalog Number: G7572) is added to the remaining cells and luminescence is measured on the EnVision microplate reader.

[3] = Kinetic solubility analysis; format: physicochemical; settings: 1× PBS, 24.2 °C, aqueous buffer, kinetic from dmso stock; pH 7.4 PBS, 1% DMSO, 24-hour incubation at ambient temperature
In short: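 Compounds from 10 mM DMSO stocks were incubated in 0.1 N HCl or 1× PBS pH 7.4 (1.0% DMSO, 100 μM maximum theoretical) for 24 h at 24.2-27.5 °C, then vacuum filtered. Filtrates were quantified in μM by chemiluminescent nitrogen detection against a calibration curve, corrected for background nitrogen; values for adjacent ring-nitrogen compounds were raised ~25%.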

SMILES | EC50 (HBV) [nM] | CC50 at 5 days [1] [µM] | CC50 at 5 days [2] [nM] | solubility kinetic at 24 h [3] [µg/mL]
CCC(C)(C)CCOC(=O)C(C)(C)NP(=O)(CO[C@H](C)Cn1cnc2c(N)ncnc21)NC(C)(C)C(=O)OCCC(C)(C)CC [Example 54, Bis(3,3-dimethylpentyl) 2,2′-(((((1-(6-amino-9H-purin-9-yl)propan-2-yl)oxy)methyl)phosphoryl)bis(azanediyl))(R)-bis(2-methylpropanoate)] | 4.45 | 6.72 | > 100 | 12 (≈ 18.4 µM)
C[C@H](Cn1cnc2c(N)ncnc21)OCP(=O)(NC(C)(C)C(=O)OCC1CCCCC1)NC(C)(C)C(=O)OCC1CCCCC1 [Example 46, Bis(cyclohexylmethyl) 2,2′-(((((1-(6-amino-9H-purin-9-yl)propan-2-yl)oxy)methyl)phosphoryl)bis(azanediyl))(R)-bis(2-methylpropanoate)] | 2.51 | 4.16 | > 100 | < 1
C[C@H](Cn1cnc2c(N)ncnc21)OCP(=O)(NC(C)(C)C(=O)O[C@H]1C[C@@H](C(C)(C)C)C1)NC(C)(C)C(=O)O[C@H]1C[C@@H](C(C)(C)C)C1 [Example 51, Bis((1S,3S)-3-(tert-butyl)cyclobutyl) 2,2′-((((((R)-1-(6-amino-9H-purin-9-yl)propan-2-yl)oxy)methyl)phosphoryl)bis(azanediyl))bis(2-methylpropanoate)] | 6 | 7.25 | > 100 | 6 (≈ 8.85 µM)
CCC[C@H]1CC[C@H](COC(=O)C(C)(C)NP(=O)(CO[C@H](C)Cn2cnc3c(N)ncnc32)NC(C)(C)C(=O)OC[C@H]2CC[C@H](CCC)CC2)CC1 [Example 92] | 4.56 | 7.99 | > 100 | < 1
C[C@H](Cn1cnc2c(N)ncnc21)OCP(=O)(NC(C)(C)C(=O)OC1CC(C2CCC2)C1)NC(C)(C)C(=O)OC1CC(C2CCC2)C1 (stereo partly drawn) [Example 90, Di([1,1′-bi(cyclobutan)]-3-yl) 2,2′-(((((1-(6-amino-9H-purin-9-yl)propan-2-yl)oxy)methyl)phosphoryl)bis(azanediyl))(R)-bis(2-methylpropanoate)] | 2.95 | 5.51 | > 100 | 7 (≈ 10.4 µM)
CCCCCCOC(=O)C(C)(C)NP(=O)(CO[C@H](C)Cn1cnc2c(NC(=O)OCc3oc(=O)oc3C)ncnc21)NC(C)(C)C(=O)OCCCCCC [Example 33, Dihexyl 2,2′-(((((1-(6-((((5-methyl-2-oxo-1,3-dioxol-4-yl)methoxy)carbonyl)amino)-9H-purin-9-yl)propan-2-yl)oxy)methyl)phosphoryl)bis(azanediyl))(R)-bis(2-methylpropanoate)] | 2.62 | 6.62 | > 100 | 14 (≈ 17.9 µM)
CCCCCCOC(=O)C(C)(C)NP(=O)(CO[C@H](C)Cn1cnc2c(N)ncnc21)NC(C)(C)C(=O)OCCCCCC [Example 1, Dihexyl 2,2′-(((((1-(6-amino-9H-purin-9-yl)propan-2-yl)oxy)methyl)phosphoryl)bis(azanediyl))(R)-bis(2-methylpropanoate)] | 1.96 | 4.99 | > 100 | 33 (≈ 52.7 µM)
C[C@H](Cn1cnc2c(N)ncnc21)OCP(=O)(NC(C)(C)C(=O)O[C@H](C)C1CCCCC1)NC(C)(C)C(=O)O[C@H](C)C1CCCCC1 [Example 55, Bis((R)-1-cyclohexylethyl) 2,2′-((((((R)-1-(6-amino-9H-purin-9-yl)propan-2-yl)oxy)methyl)phosphoryl)bis(azanediyl))bis(2-methylpropanoate)] | 6.26 | 9.42 | > 100 | < 1
C[C@H](Cn1cnc2c(N)ncnc21)OCP(=O)(NC(C)(C)C(=O)OCC1CC2(C1)CC1(CCC1)C2)NC(C)(C)C(=O)OCC1CC2(C1)CC1(CCC1)C2 [Example 57, Bis(dispiro[3.1.3^6.1^4]decan-2-ylmethyl) 2,2′-(((((1-(6-amino-9H-purin-9-yl)propan-2-yl)oxy)methyl)phosphoryl)bis(azanediyl))(R)-bis(2-methylpropanoate)] | 4.71 | 6.62 | > 100 | < 1
C[C@H](Cn1cnc2c(N)ncnc21)OCP(=O)(NC(C)(C)C(=O)O[C@H]1CC[C@H](C(F)(F)F)CC1)NC(C)(C)C(=O)O[C@H]1CC[C@H](C(F)(F)F)CC1 [Example 21, Bis(trans-4-(trifluoromethyl)cyclohexyl) 2,2′-((((((R)-1-(6-amino-9H-purin-9-yl)propan-2-yl)oxy)methyl)phosphoryl)bis(azanediyl))bis(2-methylpropanoate)] | 3.55 | 4.47 | > 100 | 39 (≈ 51.5 µM)
C[C@H](Cn1cnc2c(N)ncnc21)OCP(=O)(NC(C)(C)C(=O)OCC1CCC2(CCC2)CC1)NC(C)(C)C(=O)OCC1CCC2(CCC2)CC1 (stereo partly drawn) [Example 53, Bis(spiro[3.5]nonan-7-ylmethyl) 2,2′-(((((1-(6-amino-9H-purin-9-yl)propan-2-yl)oxy)methyl)phosphoryl)bis(azanediyl))(R)-bis(2-methylpropanoate)] | 8.38 | 7.55 | > 100 | < 1
C[C@H](Cn1cnc2c(N)ncnc21)OCP(=O)(NC(C)(C)C(=O)O[C@@H]1C[C@@H]2C[C@@H]2C1)NC(C)(C)C(=O)O[C@@H]1C[C@@H]2C[C@@H]2C1 [Example 60, Di((1R,3R,5S)-bicyclo[3.1.0]hexan-3-yl) 2,2′-((((((R)-1-(6-amino-9H-purin-9-yl)propan-2-yl)oxy)methyl)phosphoryl)bis(azanediyl))bis(2-methylpropanoate)] | 1.44 | 3.31 | > 100 | 76 (≈ 123 µM)
C[C@H](Cn1cnc2c(N)ncnc21)OCP(=O)(NC(C)(C)C(=O)OCC1CCC(F)(F)CC1)NC(C)(C)C(=O)OCC1CCC(F)(F)CC1 [Example 88, Bis((4,4-difluorocyclohexyl)methyl) 2,2′-(((((1-(6-amino-9H-purin-9-yl)propan-2-yl)oxy)methyl)phosphoryl)bis(azanediyl))(R)-bis(2-methylpropanoate)] | 2.5 | 7.29 | > 100 | 69 (≈ 95.6 µM)
CCC1(CC)CC(OC(=O)C(C)(C)NP(=O)(CO[C@H](C)Cn2cnc3c(N)ncnc32)NC(C)(C)C(=O)OC2CC(CC)(CC)C2)C1 [Example 49, Bis(3,3-diethylcyclobutyl) 2,2′-(((((1-(6-amino-9H-purin-9-yl)propan-2-yl)oxy)methyl)phosphoryl)bis(azanediyl))(R)-bis(2-methylpropanoate)] | 5.45 | 5.21 | > 100 | 4 (≈ 5.9 µM)
CCC(CC)COC(=O)C(C)(C)NP(=O)(CO[C@H](C)Cn1cnc2c(N)ncnc21)NC(C)(C)C(=O)OCC(CC)CC [Example 2, Bis(2-ethylbutyl) 2,2′-(((((1-(6-amino-9H-purin-9-yl)propan-2-yl)oxy)methyl)phosphoryl)bis(azanediyl))(R)-bis(2-methylpropanoate)] | 0.69 | 6.09 | > 1000 | 65 (≈ 104 µM)
